Source: patent publication US20230001012A1, “COCRYSTALS OF STEROID AND SECOSTEROID COMPOUNDS AND COMPOSITIONS COMPRISING THEM” (priority 2019, published 2023)
One block for each compound: values may come before it.

How the values were obtained:
Type in all cases: physicochemical
[1] = Stability of VD2 vs VD2 cocrystals (beta-sitosterol, orcinol) under two stress conditions, solid form analysed periodically by PXRD; details: for stability under both stress conditions (in words): 25° C./57% RH and 40° C./75% RH
Procedure: The stability of the VD2 cocrystal with beta-sitosterol and VD2 cocrystal with orcinol was studied and compared to the stability of VD2 (Form A) under two stress conditions. The samples were stored under both stress conditions inside a Series FD Binder chamber and they were analyzed periodically by PXRD. The two stress conditions were the following: • condition A: 25° C. and 57% relative humidity; • condition B: 40° C. and 75% relative humidity.
A saturated solution of sodium bromide salt (for 57% RH) and a saturated solution of sodium chloride (for 75% RH) were used to control relative humidity.

[2] = Dissolution rate of tablets in FaSSIF v2 medium (small-scale dissolution assay, UV quantification, Noyes-Whitney fit); details: FaSSIF v2 (pH 6.5), 25° C.; for dissolution rate: 120 minutes, 3 mm tablet
Procedure: Molar extinction coefficients of VD2, VD3 and of the coformer were determined by UV-metric titration using a GIpKa™ titrator (Sirius Analytical Instruments, UK). Briefly, a 10 mM stock solution of sample was prepared in DMSO. 50 μL of sample stock solution and 0.25 mL of a 15 mM potassium phosphate buffer were added to 10 mL of a 0.15 M KCl solution, which in turn contained 17.9 mg of FaSSIF v2 powder. The pH of the sample solution was adjusted to 2 with 0.5 M HCl before starting the titration, and then the titration was done using 0.5 M KOH up to pH 12. The UV absorption spectra (between 250 and 450 nm) of the solution were recorded at each titrant addition by a fiber optic dip-probe. The collected data were refined through the RefinamentPro software, and the pKa values and Molar Extinction Coefficients obtained by Target Factor Analysis.
• Tablet production: tablets of 3 mm diameter were done using a manual hydraulic tablet press (Applied Measurements Ltd, UK). The applied pressure was 100 Kg for 2 min. From 6 to 10 mg of each solid form, vitamin or cocrystal, were weighted. The total exposed surface area was […]. • Medium: FaSSIF v2 (pH 6.5), with corresponding amount of phosphoric (28.4 mM) acid instead of maleic acid. • Dissolution tests were performed with a small-scale dissolution assay installed in a GIpKa™ titrator (Sirius Analytical Instruments, UK). • Dissolution time and temperature: 120 minutes and 25° C. • Procedure: 15 mL of FaSSIF v2 was added into the sample vial containing the tablet. Spectra collection started immediately after. Spectra were recorded every 30 seconds between 250 and 450 nm through a Sirius D-PAS spectrometer with a bifurcated optic fibre dip probe (Hellma Analytics). The medium was stirred at a constant rate.
The concentration of cholecalciferol (VD3) or ergocalciferol (VD2) in solution at each time point is determined from the spectroscopic data by applying the Beer-Lambert law, using previously determined molar extinction coefficients of the pure APIs and the coformers. Spectrum regions where signal is saturated (A>1.5) or presenting medium interferences were discarded. Then, the concentration data were converted into absolute sample quantities, and used to generate the graphs showing the sample quantity vs. time.
Dissolution rate is obtained through the fit of the first order Noyes-Whitney exponential equation to the data: […]
In this equation, [X]t is the weight in grams of compound in solution at the experiment time (min); S is the extrapolated solubility (g) of the vitamin; kd is the rate constant for dissolution (min^−1); and t0 (min) is a term allowing for a temporal offset. Results are calculated using a refinement process in which S, kd and t0 are varied in order to minimize the root mean square deviation between the modelled concentrations and the measured concentrations. The dissolution rate (g min^−1) is given by the product kdS (T. Gravestock et al., Anal. Methods, 2011, 3, 560).

[3] = Stability of VD3 vs VD3:orcinol cocrystal under stress conditions (40° C.-75% RH), solid form analysed periodically by PXRD
Procedure: The samples were stored under these conditions inside a Series FD Binder chamber and they were analyzed periodically by PXRD. A saturated solution of sodium chloride (75%) was used to control relative humidity.

[4] = Stability of VD3:resorcinol cocrystal vs commercial VD3 in a mineral-vitamin premix containing choline chloride (HPLC-MS)
Procedure: The stability of the VD3:resorcinol cocrystal mixed in a premix that was a standard mineral-vitamin mix containing choline was studied under normal and high environmental temperature/humidity and compared to the stability of commercial VD3 for animal nutrition (Orffa D3 500) in the same premix under de same conditions.
• 25° C. and 57% humidity (temperature controlled chambers with a saturated solution of NaBr to maintain humidity at 57%); • 40° C. and 75% humidity (temperature controlled chambers with a saturated solution of NaCl to maintain humidity at 75%).
The mineral mix was supplemented to contain 750,000 UI/kg Vitamin A, 5,000 mg/kg vitamin E and 12.5% choline chloride (choline chloride, vegetal coating, 60%). VD3 final content was 1,600,000 UI/Kg (both for the cocrystal VD3:resorcinol and for the commercial VD3.
Samples (2 g) were weighted in 50 mL plastic tubes and incubated in the experimental conditions (see above). Samples for each individual time were incubated in quadruplicates to account for potential variation. Samples were prepared to be retrieved from incubators at 2, 4, 8 and 12 weeks. After each time, samples were processed and analyzed immediately (no storage).
Samples were subjected to an extraction process done in the incubation tube with the full sample to avoid sub-sampling problems. Extracted supernatant was analysed for vitamin D using and HPLC (Model 1260 Series, Agilent, Darmstadr, Germany) coupled with a MS-QQQ (Model G6420, Agilent) against a calibrated curve using a standard vitamin D3. Results are reported as a percent degradation compared with the original Vitamin concentration.

[5] = 40° C./75% H, premix with choline chloride

Solid form (PXRD) under stress conditions ([1]; 25° C.-57% RH, 0 days): Form A | Solid form (PXRD) under stress conditions ([1]; 25° C.-57% RH, 370 days): Amorphous phase | stability under both stress conditions (in words) [1]: very low stability | Solid form (PXRD) under stress conditions ([1]; 40° C.-75% RH, 0 days): Form A | Solid form (PXRD) under stress conditions ([1]; 40° C.-75% RH, 210 days): Liquid phase | time at which conversion into an amorphous phase started ([1]; both stress conditions): ≤ 25 days | dissolution rate [2]: 0.74 ± 0.23 nmol/min
SMILES: C=C1CC[C@H](O)C/C1=C/C=C1\CCC[C@]2(C)[C@@H]([C@H](C)/C=C/[C@H](C)C(C)C)CC[C@@H]12 [VD2, ergocalciferol]

SMILES: C=C1CCC(O)CC1=CC=C1CCCC2(C)C1CCC2C(C)C=CC(C)C(C)C.C=C1CCC(O)CC1=CC=C1CCCC2(C)C1CCC2C(C)C=CC(C)C(C)C.CCC(CCC(C)C1CCC2C3CC=C4CC(O)CCC4(C)C3CCC12C)C(C)C (stereo not drawn) [VD2:beta-sitosterol]
time remained as the same starting solid form ([1]; 25° C. and 57% of relative humidity): ≥ 370 days | stability under both stress conditions (in words) [1]: very high stability | time remained as the same starting solid form ([1]; 40° C. and 75% of relative humidity): ≥ 25 days | Solid form (PXRD) under stress conditions ([1]; 40° C.-75% RH, 210 days): Amorphous | Solid form (PXRD) under stress conditions ([1]; 40° C.-75% RH, 370 days): Amorphous

SMILES: C=C1CC[C@H](O)C/C1=C/C=C1\CCC[C@]2(C)[C@@H]([C@H](C)CCCC(C)C)CC[C@@H]12 [VD3, cholecalciferol, reference compound]
stability under stress conditions (in words) [3]: very low stability | time to conversion into a liquid phase [3]: five | Solid form (PXRD) under stress conditions ([3]; 0 days): Form A | Solid form (PXRD) under stress conditions ([3]; 5 days): liquid | dissolution rate [2]: 0.58 ± 0.14 nmol/min | stability in premix, comparison of the two environmental conditions ([4]; 25° C./57% H vs 40° C./75% H): more stable at 25° C./57% H compared with 40° C./75% H

SMILES: C=C1CCC(O)CC1=CC=C1CCCC2(C)C1CCC2C(C)C=CC(C)C(C)C.C=C1CCC(O)CC1=CC=C1CCCC2(C)C1CCC2C(C)CCCC(C)C (centres unmarked) [VD3-VD2]
dissolution rate [2]: 0.63 ± 0.21 nmol/min

dissolution rate [2]: 0.94 ± 0.22 nmol/min | stability in premix compared with VD3 ([4]; 25° C./57% H, premix with choline chloride): more stable than VD3 | change of stability in premix [4, 5]: sharp reduction in stability | stability in premix compared with commercial VD3 [4, 5]: better performance than commercial VD3 | stability in premix compared with VD3 ([4]; both conditions (25° C./57% H and 40° C./75% H)): more stable than VD3
SMILES: C=C1CCC(O)CC1=CC=C1CCCC2(C)C1CCC2C(C)CCCC(C)C.Oc1cccc(O)c1 (centres unmarked) [VD3-resorcinol]
dissolution speed compared with other solid forms [2]: dissolved faster than VD2, VD3, or VD2-VD3

stability under stress conditions (in words) [3]: very high stability
SMILES: C=C1CCC(O)CC1=CC=C1CCCC2(C)C1CCC2C(C)CCCC(C)C.Cc1cc(O)cc(O)c1 (centres unmarked) [VD3:orcinol]
